Data: PubChem BioAssay AID651630 (Sanford-Burnham Center for Chemical Genomics, 2012)
The source made the active and inactive calls.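 The calls were made as follows: active = lipid-stain IC50 at or below a set limit, with nuclear-stain toxicity IC50 at least five times higher; inactive = the rest.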

Assays:
[1] = tested on: TAG; assay: TAG lipid buildup inhibition with viability readout – cell-based, panel, Nile Red and DAPI fluorescence, H9c2, dose response (AID 651630); conditions: H9c2 cells, Nile Red TAG fluorescence, oleic acid;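 also: cells exposed to compound overnight before fixation and staining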
[2] = tested on: DAPI; assay: as above; conditions: H9c2 cells, DAPI nuclear fluorescence (cytotoxicity counter-readout), oleic acid

SMILES	IC50 ([1]; mean of runs)	IC50 ([1]; run 1)	IC50 ([1]; run 2)	IC50 cytotoxicity (DAPI nuclear signal decrease) ([2]; mean of runs)	IC50 cytotoxicity (DAPI nuclear signal decrease) ([2]; run 1)	IC50 cytotoxicity (DAPI nuclear signal decrease) ([2]; run 2)
CCn1ncc(/C=N/N=C2\CCC3C4CCc5cc(O)ccc5C4CCC23C)c1C (stereo not drawn)	> 25 µM (inactive)	> 25 µM	> 25 µM	> 25 µM (inactive)	> 25 µM	> 25 µM
Cn1c(N)c(C(=O)COC(=O)c2ccc([N+](=O)[O-])o2)c(=O)n(C)c1=O	10.1 µM	8.87 µM	11.3 µM	19.1 µM (inactive)	18.4 µM	19.8 µM
CC(C)C[C@@H](CNC(=O)OC(C)(C)C)NC(=O)c1nc[nH]c1C(=O)N[C@@H](CC(C)C)C(=O)CNC[C@H](CC(C)C)NC(=O)c1nc[nH]c1C(=O)N[C@@H](Cc1c[nH]c2ccccc12)C(=O)OC(C)(C)C	5.5 µM	4.49 µM	6.51 µM	> 25 µM (inactive)	> 25 µM	> 25 µM
COc1cc2c(c(OC)c1OC)-c1ccc(SC)c(=O)cc1C(NC=O)CC2 (stereo not drawn)	> 25 µM (inactive)	> 25 µM	> 25 µM	> 25 µM (inactive)	> 25 µM	> 25 µM
CCOc1c(Cl)cc(/C=C/C(=O)N(CC)CC(=O)NCc2cccs2)cc1OC	17 µM (inactive)	19.2 µM	14.8 µM	> 25 µM (inactive)	> 25 µM	> 25 µM
Nc1c(C(=O)Nc2ccccc2)c2nc3ccccc3nc2n1-c1ccc(O)cc1	2.99 µM	2.11 µM	3.88 µM	–	> 25 µM	> 25 µM
O=C(CCC(=O)N1CCOc2ccc(Cl)cc21)NCCCN1CCC(Cc2ccccc2)CC1	–	> 25 µM	9.91 µM	15.1 µM (inactive)	16 µM	14.2 µM
C[C@H](O)[C@@H]1CN2CCc3c([nH]c4ccc(-c5ccc6c(c5)OCO6)cc34)[C@@H]2C[C@@H]1N(C)C(=O)Nc1ccc(F)cc1	11 µM	7.28 µM	14.7 µM	> 25 µM (inactive)	> 25 µM	> 25 µM
O=C(Nc1nc(-c2ccccc2)cs1)C1CCCN(S(=O)(=O)c2cccc([N+](=O)[O-])c2)C1 (stereo not drawn)	–	22.1 µM	> 25 µM	> 25 µM (inactive)	> 25 µM	> 25 µM
CCN(C(=O)COC(=O)c1ccc([N+](=O)[O-])o1)c1cccc2ccccc12	–	19.4 µM	> 25 µM	20 µM (inactive)	18.1 µM	21.9 µM
CC(C)c1ccc(Nc2ncc3c(n2)CCN(C(=O)Nc2ccc(F)c(Cl)c2)C3)cc1	4.65 µM	2.95 µM	6.36 µM	–	> 25 µM	> 25 µM
COc1ccc(C(=O)Nc2ccc(Cl)cc2C(=O)NCc2ccco2)cc1	16.9 µM (inactive)	16.2 µM	17.7 µM	> 25 µM (inactive)	> 25 µM	> 25 µM
CCOc1ccc(S(=O)(=O)NCc2ccccn2)cc1NC(=O)c1ccccc1	> 25 µM (inactive)	> 25 µM	> 25 µM	> 25 µM (inactive)	> 25 µM	> 25 µM
Cc1nn(-c2ccc([N+](=O)[O-])cc2)c2c1C(c1ccc(OC(F)F)cc1)N1C(=N2)C(=O)Nc2ccccc21 (stereo not drawn)	8.6 µM	6.39 µM	10.8 µM	> 25 µM (inactive)	> 25 µM	> 25 µM
COc1ccc(CNC(=O)C[C@H]2C[C@H](C(=O)N3CCCCC3)[C@@]3(CCc4ccccc4)c4[nH]c5ccc(Cl)cc5c4CCN3C2=O)cc1OC	10 µM	9.61 µM	10.4 µM	> 25 µM (inactive)	> 25 µM	> 25 µM
CCOC(=O)c1cc(-c2ccccc2)sc1NC(=S)Nc1cccc(C)n1	> 25 µM (inactive)	> 25 µM	> 25 µM	> 25 µM (inactive)	> 25 µM	> 25 µM

SMILES	IC50 ([1]; mean of runs)	IC50 ([1]; run 1)	IC50 ([1]; run 2)	IC50 cytotoxicity (DAPI nuclear signal decrease) ([2]; mean of runs)	IC50 cytotoxicity (DAPI nuclear signal decrease) ([2]; run 1)	IC50 cytotoxicity (DAPI nuclear signal decrease) ([2]; run 2)
C#CCN(C[C@H]1[C@H](OC(=O)NCCCCCC)[C@H](OC(=O)NCCCCCC)C[C@@H](C(=O)OC)[C@H]1C(=O)OC)S(=O)(=O)c1ccc(C)cc1	4.91 µM	4.31 µM	5.5 µM	–	> 25 µM	> 25 µM
CN1CCN(c2ccc([N+](=O)[O-])cc2C(=O)c2ccc(Cl)cc2)CC1	> 25 µM (inactive)	> 25 µM	> 25 µM	> 25 µM (inactive)	> 25 µM	> 25 µM
CC1(C(=O)NCc2ccccc2)Cc2c(-c3cccc(C(N)=O)c3)ccnc2O1 (stereo not drawn)	–	20.9 µM	> 25 µM	> 25 µM (inactive)	> 25 µM	> 25 µM
CCOc1ccc(Cc2nnc(SCC(=O)Nc3ccccc3)n(N)c2=O)cc1	5.04 µM	5.36 µM	4.71 µM	> 25 µM (inactive)	> 25 µM	> 25 µM
CC(C)(C)NC(=O)C[C@H]1C[C@H](C(=O)N2CCCCC2)[C@@]2(CCc3ccccc3)c3[nH]c4ccc(Cl)cc4c3CCN2C1=O	17.7 µM (inactive)	17.1 µM	18.2 µM	> 25 µM (inactive)	> 25 µM	> 25 µM
Nc1ccccc1C#Cc1ccccc1	10.9 µM	8.79 µM	13.1 µM	> 25 µM (inactive)	> 25 µM	> 25 µM
CC1(c2ccccc2)O[C@@H]2C[C@H]3[C@@H]4CCC5=CC(=O)C=C[C@]5(C)[C@@]4(F)[C@@H](O)C[C@]3(C)[C@]2(C(=O)CO)O1 (stereo partly drawn)	13.9 µM	13 µM	14.7 µM	> 25 µM (inactive)	> 25 µM	> 25 µM
Clc1cccc(Nc2nc(-c3ccncc3)nc3ccccc23)c1	–	18.9 µM	> 25 µM	> 25 µM (inactive)	> 25 µM	> 25 µM
COC(=O)Nc1nc2ccc(Sc3ccccc3)cc2[nH]1	> 25 µM (inactive)	> 25 µM	> 25 µM	> 25 µM (inactive)	> 25 µM	> 25 µM
Cc1cc(NC(=O)CSc2nc(-c3ccco3)cc(C(F)(F)F)n2)no1	> 25 µM (inactive)	> 25 µM	> 25 µM	> 25 µM (inactive)	> 25 µM	> 25 µM
CC(=O)OCC(=O)[C@@]12OC3(CCCC3)O[C@@H]1C[C@H]1[C@@H]3CCC4=CC(=O)C=C[C@]4(C)[C@@]3(F)[C@@H](O)C[C@@]12C	2.83 µM	2.71 µM	2.95 µM	–	> 25 µM	> 25 µM
Cc1ccc(/C=N/NC(=O)c2c(C)nc3ccc(Br)cn23)cc1	> 25 µM (inactive)	> 25 µM	> 25 µM	> 25 µM (inactive)	> 25 µM	> 25 µM
COc1cccc(Nc2nnc(SCc3cc([N+](=O)[O-])cc4c3OCOC4)s2)c1	> 25 µM (inactive)	> 25 µM	> 25 µM	> 25 µM (inactive)	> 25 µM	> 25 µM
C[C@H]1CN([C@@H](C)CO)C(=O)Cc2cc(NC(=O)CCC(F)(F)F)ccc2O[C@H]1CN(C)S(=O)(=O)c1ccc(Cl)cc1	> 25 µM (inactive)	> 25 µM	> 25 µM	> 25 µM (inactive)	> 25 µM	> 25 µM
COc1ccc(C(C(=O)NC(C)(C)C)N(Cc2ccco2)C(=O)CCC(=O)Nc2cc(C)on2)cc1 (stereo not drawn)	19 µM (inactive)	19.9 µM	18.1 µM	> 25 µM (inactive)	> 25 µM	> 25 µM
COc1cc2ccccc2cc1C(=O)N/N=C/c1cccs1	> 25 µM (inactive)	> 25 µM	> 25 µM	> 25 µM (inactive)	> 25 µM	> 25 µM
